Measured values as given in patent US20140336182A1, “Aurora Kinase Modulators and Method of Use” (Amgen Inc., priority 2013, published 2014).
Like-named read-outs stand apart in the source and are kept apart here.

System: HeLa cells
Assay: HeLa cell 24 hr ploidy assay (DNA content)
Type: cell-based
Details: Homo sapiens, HeLa, average, read-out: 24h_4NPloidy EC50_IP (uM Avg)
Method in brief: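 DNA content measured by Hoechst 33342 nuclear staining (0.5 ug/ml, 45 min RT) and high-content imaging of fixed HeLa cells after 24 h compound exposure in 0.25% DMSO. Fractions of 4N and >4N cells fitted to dose curves giving EC50 IP, EC50 transit, Max and Min.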

Row | Structure (SMILES) | EC50 (HeLa cells, 4N ploidy) [µM] | EC50 (4N ploidy) [µM] | also measured
1 | COc1cnc2c(Oc3ccc(Nc4nnc(-c5cc(Cl)cs5)c5ccccc45)cc3)ccnc2c1 [compound 316] | 0.027 | – | –
2 | COc1cc(OC)c2c(Oc3ccc(Nc4nnc(-c5ccc(Cl)cc5)c5ccccc45)cc3)ncnc2c1 [compound 590] | 0.004 | – | –
3 | FC1(F)Oc2ccc(-c3nnc(Nc4ccc(Oc5ccnc6ccsc56)cc4)c4ccccc34)cc2O1 [compound 293] | 0.045 | – | –
4 | COc1ccc2ncnc(Oc3ccc(Nc4nnc(-c5ccc(Cl)cc5)c5ccccc45)cc3)c2c1 [compound 564] | 0.043 | – | –
5 | Cc1ccc(-c2nnc(Nc3ccc(Sc4ccnc5ccoc45)cc3)c3ccccc23)cc1N [compound 479] | 0.009 | – | –
6 | COc1cnc2c(Oc3ccc(Nc4nnc(-c5cnc6[nH]ccc6c5)c5ccccc45)cc3)ccnc2c1 [compound 280] | 0.08 | – | –
7 | CCc1cc(-c2ccccc2)nnc1Nc1ccc(Oc2ccnc3cc(OC)cnc23)cc1 [compound 108] | – | 0.083 | –
8 | Clc1ccc(-c2nnc(Nc3ccc(Oc4ncnc5ccsc45)cc3)c3ccccc23)cc1 [compound 591] | 0.115 | – | –
9 | Fc1cc(F)c2c(Sc3ccc(Nc4nnc(-c5ccccc5)c5ccccc45)cc3)ccnc2c1 [compound 311] | 0.055 | – | –
10 | COc1cc2nccc(Oc3ccc(Nc4nnc(-c5cc(C)ccn5)c5ccccc45)cc3)c2cc1OC [compound 117] | – | 0.066 | –
11 | COc1cc2nccc(Nc3ccc(Nc4nnc(-c5ccccc5)c5ccccc45)cc3)c2cn1 [compound 124, N-(7-(methyloxy)-1,6-naphthyridin-4-yl)-N′-(4-phenyl-1-phthalazinyl)-1,4-benzenediamine] | – | 0.025 | –
12 | COc1cnc2c(Oc3ccc(Nc4nnc(-c5ccnn5C)c5ccccc45)cc3)ccnc2c1 [compound 223] | > 1.2 | – | –
13 | COc1ccc2nccc(Sc3ccc(Nc4nnc(-c5ccccc5)c5ccccc45)cc3)c2c1 [compound 292, N-(4-((6-(methyloxy)-4-quinolinyl)thio)phenyl)-4-phenyl-1-phthalazinamine] | 0.012 | – | –
14 | CCc1cc(N2CCCCC2)nnc1Nc1ccc(Oc2ccnc3cc(OC)cnc23)cc1 [compound 321] | > 1.2 | – | –
15 | COc1cc2nccc(Oc3ccc(Nc4nnc(-n5nc(C)cc5C)c5ccccc45)cc3F)c2cc1OC [compound 77] | – | 3.09 | –
16 | COc1cnc2c(Sc3ccc(Nc4nnc(C5=CCNCC5)c5ccccc45)cc3)ccnc2c1 [Example 401, N-(4-(7-Methoxy-1,5-naphthyridin-4-ylthio)phenyl)-4-(1,2,3,6-tetrahydropyridin-4-yl)phthalazin-1-amine] | 0.187 | – | –
17 | c1ccc(-c2nnc(Nc3ccc(Sc4ccnc5cc[nH]c45)cc3)c3ccccc23)cc1 [compound 462] | 0.043 | – | –
18 | Clc1ccc(-c2nnc(Nc3ccc(Oc4ccnc5ccncc45)cc3)c3ccccc23)cc1 [compound 423] | 0.031 | – | –
19 | COc1cnc2c(Oc3ccc(Nc4nnc(-c5ccccc5)cc4C(C)C)cc3)ccnc2c1 [compound 234] | 0.196 | – | –
20 | COc1ccc2c(C(=O)c3ccc(Nc4nnc(-c5ccc(Cl)cc5)c5ccccc45)cc3)ccnc2c1 [compound 615] | – | – | EC50 (HeLa cells): 0.15 µM
21 | COc1cnc2c(Oc3ccc(Nc4nnc(-c5cccc6[nH]ccc56)c5ccccc45)cc3)ccnc2c1 [compound 183] | 0.052 | – | –
22 | N#Cc1cc2nccc(Sc3ccc(Nc4nnc(-c5ccc(Cl)cn5)c5ccccc45)cc3)c2s1 [compound 460] | 0.041 | – | –
23 | COc1cnc2c(Sc3ccc(Nc4nnc(-c5ccc(C)c(N)c5)c5ccccc45)cc3)ccnc2c1 [compound 477] | 0.001 | – | –
24 | COc1cnc2c(Oc3ccc(Nc4nnc(-c5ccccc5)c5ccccc45)cc3)ccnc2c1 [compound 79, N-(4-((7-(methyloxy)-1,5-naphthyridin-4-yl)oxy)phenyl)-4-phenyl-1-phthalazinamine] | – | 0.041 | –

Row | Structure (SMILES) | EC50 (HeLa cells, 4N ploidy) [µM] | EC50 (4N ploidy) [µM] | also measured
25 | Cc1ccc(-c2nnc(Nc3ccc(Sc4ccnc5cc(C#N)sc45)cc3)c3ccccc23)cn1 [compound 461] | 0.019 | – | –
26 | N#Cc1ccc2c(Oc3ccc(Nc4nnc(-c5ccc(Cl)cc5)c5ccccc45)cc3)ccnc2c1 [compound 242] | 0.019 | – | –
27 | CCc1ccc(-c2nnc(Nc3ccc(Oc4ccnc5cc(OC)cnc45)cc3)c3ccccc23)s1 [compound 229] | 0.026 | – | –
28 | COc1ccc2nccc(Oc3ccc(Nc4nnc(-c5ccc(C)cn5)c5ccccc45)cc3)c2c1 [compound 554] | 0.108 | – | –
29 | COc1ccc2c(Oc3ccc(Nc4nnc(-c5ccccc5)c5ccccc45)cc3)ccnc2c1 [compound 91] | – | 0.03 | –
30 | COc1cnc2c(Nc3ccc(Nc4nnc(-c5ccccc5)c5ccccc45)cc3)ccnc2c1 [Example 40, N′-(7-methoxy-1,5-naphthyridin-4-yl)-N4-(4-phenylphthalazin-1-yl)benzene-1,4-diamine] | – | 0.07 | –
31 | COc1cc2nccc(Oc3ccc(Nc4nnc(N5CCN(C)CC5)c5ccccc45)cc3)c2cn1 [compound 109] | – | 0.297 | –
32 | N#Cc1ccc2c(Oc3ccc(Nc4nnc(-c5ccccc5)c5ccccc45)cc3)ccnc2c1 [compound 105] | – | 0.036 | –
33 | COc1cncc(-c2nnc(Nc3ccc(Oc4ccnc5cc(OC)cnc45)cc3)c3ccccc23)c1 [compound 129] | – | 0.181 | –
34 | Cc1csc(-c2nnc(Nc3ccc(Oc4ccnc5ccncc45)cc3)c3ccccc23)c1 [compound 429] | 0.034 | – | –
35 | COc1cnnc(Nc2ccc(Oc3ccnc4cc(OC)cnc34)cc2)c1 [compound 456] | > 1.2 | – | –
36 | Brc1ccc2c(Oc3ccc(Nc4nnc(-c5ccccc5)c5ccccc45)cc3)ccnc2c1 [compound 133] | – | 0.116 | –
37 | NC(=O)c1cc2nccc(Oc3ccc(Nc4nnc(-c5ccccc5)c5ccccc45)cc3F)c2s1 [compound 78] | – | 0.031 | –
38 | COc1cc2c(Oc3ccc(Nc4nnc(-c5ccccc5)c5ccccc45)cc3)ccnc2cc1O [compound 422] | 0.01 | – | –
39 | Clc1ccc(-c2nnc(Nc3ccc(Sc4ccnc5ccccc45)cc3)c3ccccc23)nc1 [compound 365] | 0.003 | – | –
40 | COc1cnc2c(Oc3ccc(Nc4nnc(-c5ccc(Cl)c(C#N)c5)c5ccccc45)cc3)ccnc2c1 [compound 154] | – | 0.061 | –
41 | COc1cnc2c(Oc3ccc(Nc4nnc(-c5cccc(C)n5)c5ccccc45)cc3)ccnc2c1 [compound 111] | – | 0.109 | –
42 | COc1cnc2c(Oc3ccc(Nc4nnc(-c5ccc(C(F)(F)F)cc5)c5ccccc45)cc3)ccnc2c1 [compound 146, N-(4-((7-(methyloxy)-1,5-naphthyridin-4-yl)oxy)phenyl)-4-(4-(trifluoromethyl)phenyl)-1-phthalazinamine] | – | 0.057 | –
43 | COc1cnc2c(Oc3ccc(Nc4nnc(-c5ccc(F)c(C)c5)c5ccccc45)cc3)ccnc2c1 [compound 246, 4-(4-fluoro-3-methylphenyl)-N-(4-((7-(methyloxy)-1,5-naphthyridin-4-yl)oxy)phenyl)-1-phthalazinamine] | 0.03 | – | –
44 | Fc1cc(F)c2c(Sc3ccc(Nc4nnc(-c5ccc(Cl)cc5)c5ccccc45)cc3)ccnc2c1 [compound 342] | 0.044 | – | –
45 | Cc1csc(-c2nnc(Nc3ccc(Sc4ccnc5ccncc45)cc3)c3ccccc23)c1 [compound 428] | 0.016 | – | –
46 | COc1cnc2c(N(C)c3ccc(Nc4nnc(-c5ccccc5)c5ccccc45)cc3)ccnc2c1 [compound 51, N-methyl-N-(7-(methyloxy)-1,5-naphthyridin-4-yl)-N′-(4-phenyl-1-phthalazinyl)-1,4-benzenediamine] | 0.372 | – | –
47 | Clc1ccc(-c2nnc(Nc3ccc(Oc4cnnc5ccc(Br)cc45)cc3)c3ccccc23)cc1 [compound 369] | > 1.2 | – | –
